Legend:
[1] = test system: human adult dermal fibroblasts; experiment: fibroblast adhesion assay; format: cell-based
Protocol: (§1) Primary cultures of human adult dermal fibroblasts, acquired from Marcia Simon (Living Skin Bank, SUNY at Stony Brook), the ATCC (Bethesda, Md.), or the NIA (Bethesda, Md.), are cultured in Dulbecco's modified Eagle's medium (DMEM, Life Technologies) containing 42 mM sodium bicarbonate and supplemented with 100 U/ml penicillin, 100 μg/ml streptomycin, and 10% fetal bovine serum (FBS, HyClone, Logan, Utah), at 37° C. and 5% CO2 /95% air in a humidified atmosphere. The cells are used between passages 4 and 12.
(§2) Fibronectin, its fragments or recombinant domains were diluted with concentrated DMEM to the appropriate concentration. Aliquots of 450 μl protein solution are added to the wells of 24-well tissue culture plates (Becton-Dickinson, Lincoln Park, N.J.). After a 2 hour incubation at 37° C. in 5% CO2, plates were dried overnight at room temperature under sterile conditions.
Assay plates are prepared as described under fibroblast migration assays. The assay for measuring fibroblast adhesion to matrix proteins are performed essentially as described (Gailit et al. 1993) except that the cell concentration is lowered to 100,000 cells/ml or 10,000 cells/well. […] The absorbance at 590 nm is measured with a dual wavelength microtiter plate reader (THERMOmax, Molecular Devices, Menlo Park, Calif.) and the reading corrected for light scattering by subtraction of the absorbance at 450 nm.

[2] = test system: human adult dermal fibroblasts; experiment: two-dimensional outmigration of fibroblasts from contracted collagen gels over protein coated surfaces; format: cell-based; conditions: for effect of synthetic peptide added to the outmigration assay on migration of fibroblasts onto dried FN: FN coated plates
Protocol: as §1
(§3) Fibroblast cultures at 80% confluence are harvested by treatment with 0.05% trypsin/0.01% EDTA. Trypsin is inactivated by addition of soy bean trypsin inhibitor in PBS containing 0.2% BSA. The cells are washed twice with DMEM+2% BSA and resuspended at a concentration of 1×10^6 cells/ml. The fibroblasts are mixed with neutralized collagen (Vitrogen 100, Celtrix Labs., Santa Clara, Calif.), 2% BSA, 30 ng/ml PDGF-BB, 30 μg/ml fibronectin, and concentrated DMEM so that the final concentration of DMEM and sodium bicarbonate is 1x. 600 μl of the cell mixture is added to the wells of a 24-well tissue culture plate, which has been precoated with 2% BSA. The collagen is allowed to polymerize at 37° C. The final concentration of collagen is 1.8 mg/ml and each gel contains 6×10^4 cells. After two hours incubation, the gels are gently detached from the plastic surface to allow contraction with the addition of 0.5 ml DMEM+2% BSA and 30 ng/ml PDGF-BB per well. The gels are incubated overnight at 37° C. in 100% humidity, 5% CO2 and 95% air.
as §2
Plates coated with dried proteins were washed once with PBS and incubated with 2% BSA for 1 hour at 37° C. to block nonspecific binding sites. After washing the plates three times with PBS, contracted-collagen gel organotypic constructs were attached to the coated plates. DMEM, 2% BSA and 30 ng/ml PDGF-BB was added to assay plates so that the medium was level with the top of the collagen gel.
For preparation of "gold standard" transmigration assays containing a dermal organotypic construct surrounded by a fibrin clot as previously described (Greiling and Clark 1997), dried fibrin fibril-coated dishes are washed once with PBS and fibroblast-contracted collagen gels are placed on the surface. Fibrinogen, at a final concentration of 300 μg/ml, is mixed with DMEM and 1.0 U/ml thrombin, added to the wells so that the solution is level with the top of the collagen gel, and allowed to clot at room temperature for 30 min. When needed, other supplements such as 30 ng/ml PDGF-BB are added to the mixture. […] All migration assays are quantified after a 24 hour incubation at 37° C. in 100% humidity, 5% CO2 and 95% air.
The number of migrated cells was quantified under a Nikon inverted phase microscope by visually counting identifiable cell nuclei located outside of the contracted collagen gel in the fibrin gel (transmigration assay) or on the matrix (outmigration assay). Within a given experiment each condition was run in triplicate and means ±SD calculated. […] Statistical differences among conditions can be determined by ANOVA.

[3] = test system: human adult dermal fibroblasts; experiment: three-dimensional transmigration from collagen gel into fibrin gel; format: cell-based
Protocol: as §1, §3
For preparation of "gold standard" transmigration assays containing a dermal organotypic construct surrounded by a fibrin clot as previously described (Greiling and Clark 1997), dried fibrin fibril-coated dishes are washed once with PBS and fibroblast-contracted collagen gels are placed on the surface. Fibrinogen, at a final concentration of 300 μg/ml, is mixed with DMEM and 1.0 U/ml thrombin, added to the wells so that the solution is level with the top of the collagen gel, and allowed to clot at room temperature for 30 min. When needed, other supplements such as 30 ng/ml PDGF-BB are added to the mixture. For HA 3-dimensional transmigration, wells are coated overnight at 37° C. with an appropriate solution of HA. The next day a fibroblast-contracted collagen gel is placed on the HA-coated well in DMEM, with or without 30 ng/ml PDGF-BB, is added so that the solution is level with the top of the collagen gels. All migration assays are quantified after a 24 hour incubation at 37° C. in 100% humidity, 5% CO2 and 95% air.
The number of migrated cells was quantified under a Nikon inverted phase microscope by visually counting identifiable cell nuclei located outside of the contracted collagen gel in the fibrin gel (transmigration assay) or on the matrix (outmigration assay). Within a given experiment each condition was run in triplicate and means ±SD calculated. All experiments were repeated at least three times. Statistical differences among conditions can be determined by ANOVA.
The extracellular matrix of the present invention was tested by use of the in vitro model as described in U.S. patent application Ser. No. 08/723,789, which is hereby incorporated by reference. The basis of the in vitro model is a contracted collagen gel containing fibroblasts which acquire a tissue-like phenotype within the collagen matrix. Surrounding the collagen gel, or dermal equivalent, with a fibrin clot produces a simple inside-outside model of the early cutaneous wound (FIG. 1). Without an added stimulus, no more than a few of the normal adult human dermal fibroblasts within the collagen gel would migrate into the fibrin gel. […]

corneal epithelial wound = conditions: cited from earlier work

fibronectin [FN]
effect of reduction and alkylation of FN dimer to the monomeric state on ability to mediate adhesion [1]: did not affect | effect of reduction and alkylation of FN dimer to the monomeric state on ability to mediate migration [2]: did not affect | percent migration of that observed on FN, no additional protein added to plates ([2]; plates coated with 120 nmol/l protein, mean ± SD, triplicate, FN normalized to 100%): 100 ± 2.7% | transmigration on inclusion of FN in the collagen gel and in the fibrin gel ([3]; 30 μg/ml FN in each gel): restored transmigration to a normal level | transmigration on addition of FN to the FN-depleted fibrin gel ([3]; FN added to fibrin gel): restored | FN concentration giving optimal cell movement ([3]; FN added to fibrin gel, FN:fibrinogen ratio 1:10): 30 µg/mL | most effective FN concentration in each gel ([3]; FN in both collagen gel and fibrin gel, 10, 30, or 100 μg/ml tested): 30 µg/mL | decrease of fibroblast transmigration into the fibrin clot after removal of FN ([3]; FN removed from fibrinogen by gelatin affinity chromatography, 30 ng/ml PDGF-BB): about 80% | transmigration with FN-free collagen gels ([3]; serum omitted, collagen gel contracted with PDGF-BB): no transmigration occurred

peptide I: synthetic peptide from the heparin II binding domain of FN, SEQ ID NO:6 (YEKPGSPRREVVPRPRGV)
effect of synthetic peptide added to the outmigration assay on migration of fibroblasts onto dried FN [2]: inhibited the migration of fibroblasts onto dried FN in a dose-dependent manner | effect of synthetic peptide on migration over collagen ([2]; collagen coated assay plates): inhibitory effect in a dose-dependent manner

CS1: synthetic peptide from the IIICS segment of FN, SEQ ID NO:3 as tested
effect of synthetic peptide added to the outmigration assay on migration of fibroblasts onto dried FN [2]: slightly enhancing effect in the higher concentrations

chondroitin sulfate
effect on wound closure (corneal epithelial wound): did not affect wound closure

Source: patent US6194378A, “Fibronectin peptides-based extracellular matrix for wound healing” (The Research Foundation of State University of New York, priority 1998, dated 2001)
